Data as given in patent US20090029956A1, “Substance mixture” (priority 2005, published 2009).

Tested on: human ciliary cells
Experiment: Flicker frequency and regeneration capability of human ciliary cells, photometric method
Type: cell-based
Details: for Mean value in percent, 20 min test Solution: (II) / Mean value in percent, 20 min NaCl 0.9% (III): Time I = 100; for Mean value in percent, 20 min NaCl 0.9% (III): Time III (regeneration)
Method: In comparison with this, the seriously damaging effect of preservatives (on the basis of benzalkonium chloride, BAC) used in conventional cortisone preparations on human ciliary cells was compared. The flicker frequency was determined in a manner known per se by means of a photometric method. Solutions and fluticasone propionate and mixed solutions of fluticasone propionate with N-chlorotaurine sodium (NCT) were prepared in accordance with the following table: Mucous membrane cells were first incubated with an isotonic NaCl solution for 20 minutes (Time I), subsequently incubated with the solutions A, B and C for 20 minutes (Time II) and subsequently incubated in an isotonic solution for a further 20 minutes (Time III). Parallel to this, […] mucous membrane cells were incubated according to the same pattern in comparison with BAC solutions (concentrations of 0.04 mg/ml; 0.1 mg/ml; 0.2 mg/ml; 0.5 mg/ml). The results of the regeneration capability of the ciliary cells after treatment with the solutions A, B and C were compared with the results after the treatment with the BAC solutions.

benzalkonium chloride [BAC] was tested, and the “Mean value in percent, 20 min test Solution: (II)” value (shortened to “Mean value in percent … (II)”) (0.04 mg/ml BAC) was 96.6%, the “Mean value in percent, 20 min NaCl 0.9% (III)” value (0.04 mg/ml BAC) was 100% and the “Mean value in percent … (II)” value (0.1 mg/ml BAC) was 91.9%. The “Mean value in percent, 20 min NaCl 0.9% (III)” value (0.1 mg/ml BAC) was 93.6%, the “Mean value in percent … (II)” value (0.2 mg/ml BAC) was 63.5% and the “Mean value in percent, 20 min NaCl 0.9% (III)” value (0.2 mg/ml BAC) was 19.4%. The “Mean value in percent … (II)” value (0.5 mg/ml BAC) was 0%, the “Mean value in percent, 20 min NaCl 0.9% (III)” value (0.5 mg/ml BAC) was 0% and the “Recovery of ciliary cells after treatment” value (treatment with more than 0.1 mg/ml benzalkonium chloride) was “remain permanently damaged”.
